The results in this text go back to US20250009697A1, “COMPOSITION FOR INCREASING AMOUNT OF FOOD INGESTED AND/OR IMPROVING ANOREXIA, AND COMPOSITION FOR ACTIVATING TRANSIENT RECEPTOR POTENTIAL ANKYRIN 1” (HOUSE FOODS GROUP INC., priority 2021, published 2025).

Experiment [1] has as its target T1, Human TRPA1 (hTRPA1) (Homo sapiens, UniProt O75762).
T1 construct: expressed in transfected cells
Nature of the experiment: TRPA1 Activation Test 2: intracellular Ca2+ imaging assay 2-1 to 2-3, hTRPA1 stably expressing cell line. In kind it is cell-based. The following applies: for TRPA1 activation rates: Table 10; for Concentration dependence of TRPA1 activity (in words): additional experiments; for TRPA1 activating action (in words): hTRPA1 stably expressing cell line; for TRPA1 activation rate, With antagonist / TRPA1 activation rate, Without antagonist: Table 11. How it is done:
(§1) DNAs encoding genes described in the following Table 2 were inserted into pcDNA 5/TO vector (Invitrogen) to prepare various expression vectors.
(§2) These expression vectors were transfected into T-REx™_293 cells (Invitrogen) by a conventional method using Lipofectamine LTX (Invitrogen). Then, various transfectants were cultured and cloned by a conventional method using Dulbecco's Modified Eagle Medium (DMEM, Nacalai Tesque Inc.), containing 10% fetal bovine serum (FBS, Cytiva), […] of hygromycin B, and 5 μg/mL of blasticidin S, as a drug selection medium to obtain a hTRPA1 stably expressing cell line, a hTRPV1 stably expressing cell line, and a hTRPM8 stably expressing cell line.
(§3) A hTRPA1 stably expressing cell line in which expression of hTRPA1 had been induced in advance by a conventional method was prepared in a 96 well clear bottom plate, and the hTRPA1 activating action of rhein (produced by Tokyo Chemical Industry Co., Ltd.) was tested. Specifically, after each well was washed with PBS, 50 μL of an assay buffer (Hanks' balanced salt solution containing no calcium ion or magnesium ion that contained 1 mM of CaCl2 dihydrate, 20 mM of HEPES, and 0.1% BSA) containing calcium fluorescent indicator Calbryte™ 520 AM (produced by AAT Bioquest) in a final concentration of 4 μM was added, followed by incubating at 33° C. for 45 minutes. After washing with the assay buffer, 100 μL of the assay buffer was added to each well. This plate was set to FlexStation 3 (Molecular Devices, LLC), and a fluorescence intensity (excitation wavelength 490 nm, fluorescence wavelength 525 nm) at 31° C. was measured every two seconds, and 30 seconds after the start of the measurement, 100 μL of an assay buffer containing a test sample (allyl isothiocyanate (AITC) of positive control or rhein) which was prepared to have a certain final concentration or DMSO was added. Then, a well in which an assay buffer containing ionomycin (having a final concentration of 10 μM after the addition) instead of the test samples was added was also prepared as a reference for fluorescence intensity.
(§4) The measurement was continued from the start of the measurement up to 120 seconds, and the TRPA1 activation ability of the test samples was calculated in accordance with the following formula.
Activation rate (%)=(Fmax[s]−F0)/(Fmax[i]−F0)×100 • Fmax[s]: The maximum value of the fluorescence intensity when the test sample or positive control was added • F0: The average value of the fluorescence intensity for 20 seconds after the start of the measurement (base line) • Fmax[i]: The maximum value of the fluorescence intensity when ionomycin was added
The TRPA1 activation ability of each test sample was measured in the same manner as in the above (2) except the test was conducted with A-967079 (1 μM), which is a TRPA1-specific antagonist, or without A-967079. In addition, intracellular Ca^2+ imaging assay was conducted in the same manner as in the above (2) except that a hTRPV1 stably expressing cell line, a hTRPM8 stably expressing cell line, or a Mock cell was used instead of the hTRPA1 stably expressing cell line. Note that capsaicin was used as positive control for the hTRPV1 stably expressing cell line, and icilin was used as positive control for the hTRPM8 stably expressing cell line.
A TRPA1 activation ability was measured in the same manner as in the above (2) by using, as a test sample, rhein or compounds described in the following Table 10, which had anthraquinone structures similar to rhein, at a concentration of 200 μM of the test sample.

The nature of experiment [2]: Anorexia Improving Test 3: cumulative amounts of food ingested of mice, rhein with or without A-967079. In kind it is in vivo. The following applies: oral, rhein 100 μmol/kg body weight, A-967079 10 μmol/kg body weight. How it is done: Male ICR mice were housed in individual cages in which ALPHA-dri (Shepherd Specialty Papers) was laid, and were acclimatized and raised for at least one week or more while a powder feed (CE-2, CLEA Japan, Inc.) was given to the mice by using a powder feeder for mice (SN-950, Shinano Manufacturing Co., Ltd.). Then, for several days before the experiment, handling and oral administration training using a feeding needle (FG4202, Fuchigami Kikai Co., Ltd.) were conducted every day. To 9 week-old mice under ad libitum feeding conditions, a carrier solution (containing 2% of dimethyl sulfoxide and 98% of a 0.5% methyl cellulose solution in volume ratio) or a rhein solution (obtained by dissolving 8.53 mg of rhein in 1 mL of the carrier solution) was orally administered from 9:20 a.m. (10 mL/kg body weight). The dosage of rhein was 300 μmol/kg body weight in terms of molar concentration. Then, a feeder the mass of which had been measured in advance was set in the cage at 9:30 a.m. The masses of the feeder and the feed spilled in the cage 0.5, 1, 2, and 3 hours after the start of the feeding experiment were measured, and the ingested mass (g) at each time was measured (n=6). The ingested mass (g) of each mouse was measured in the same manner as in anorexia improving test 2 (the above item 5) except that 10 mL/kg body weight of a carrier solution, a rhein solution (100 μmol/kg body weight), an A-967079 solution (10 μmol/kg body weight), or a mixed solution of A-967079 and rhein (in 10 μmol/kg body weight and 100 μmol/kg body weight, respectively) was orally administered to the mouse. Results obtained by calculating the cumulative amounts of food ingested and conducting a multiple comparison (multiple t-test) by the Dunn-Bonferroni method are shown in Table 12.

Experiment [3] concerns the target T1, Human TRPA1 (hTRPA1). As to the kind of experiment: TRPA1 Activation Test 1: intracellular Ca2+ imaging assay 1-1 to 1-3, hTRPA1 stably expressing cell line. The class given is cell-based. The following applies: for TRPA1 activating action with TRPA1-specific antagonist (in words) / TRPA1 activation rate, With antagonist: A-967079 1 μM; for TRPA1 activating action (in words): hTRPA1 stably expressing cell line; for TRPA1 activation rate, With antagonist / TRPA1 activation rate, Without antagonist: Table 6. How it is done: as §1, §2
as §3, with “bottom plate (black),” for “bottom plate,”, “and a” for “and the”, “of the purified oxylipin or the R2 fraction (both were assumed to contain a compound having a molecular weight of 294) obtained in the above item 1” for “of rhein (produced by Tokyo Chemical Industry Co., Ltd.)”, “calcium ions” for “calcium ion”, “magnesium ions” for “magnesium ion”, “sample” for “sample (allyl isothiocyanate (AITC) of positive control or rhein)”
as §4
Activation rate (%)=(Fmax[s]−F0)/(Fmax[i]−F0)×100 • Fmax[s]: The maximum value of the fluorescence intensity when the test sample or the positive control was added • F0: The average value of the fluorescence intensity for 20 seconds after the start of the measurement (base line) • Fmax[i]: The maximum value of the fluorescence intensity when ionomycin was added
The TRPA1 activation ability was measured in the same manner as in the above (2) except that the R2 fraction or allyl isothiocyanate (AITC) was used as a test sample and the test was conducted with A-967079 (1 μM), which is a TRPA1-specific antagonist, or without A-967079. In addition, regarding the R2 fraction, the hTRPV1 stably expressing cell line or the hTRPM8 stably expressing cell line was used instead of the hTRPA1 stably expressing cell line to conduct the same test. Note that as positive controls, capsaicin was used for the hTRPV1 stably expressing cell line and icilin was used for the hTRPM8 stably expressing cell line.
The TRPA1 activation ability was measured in the same manner as in the above (2) except that each isolated compound or allyl isothiocyanate (AITC) was used as a test sample and the test was conducted with A-967079 (1 μM), which was a TRPA1-specific antagonist, or without A-967079.

T1 sequence (O75762 whole entry): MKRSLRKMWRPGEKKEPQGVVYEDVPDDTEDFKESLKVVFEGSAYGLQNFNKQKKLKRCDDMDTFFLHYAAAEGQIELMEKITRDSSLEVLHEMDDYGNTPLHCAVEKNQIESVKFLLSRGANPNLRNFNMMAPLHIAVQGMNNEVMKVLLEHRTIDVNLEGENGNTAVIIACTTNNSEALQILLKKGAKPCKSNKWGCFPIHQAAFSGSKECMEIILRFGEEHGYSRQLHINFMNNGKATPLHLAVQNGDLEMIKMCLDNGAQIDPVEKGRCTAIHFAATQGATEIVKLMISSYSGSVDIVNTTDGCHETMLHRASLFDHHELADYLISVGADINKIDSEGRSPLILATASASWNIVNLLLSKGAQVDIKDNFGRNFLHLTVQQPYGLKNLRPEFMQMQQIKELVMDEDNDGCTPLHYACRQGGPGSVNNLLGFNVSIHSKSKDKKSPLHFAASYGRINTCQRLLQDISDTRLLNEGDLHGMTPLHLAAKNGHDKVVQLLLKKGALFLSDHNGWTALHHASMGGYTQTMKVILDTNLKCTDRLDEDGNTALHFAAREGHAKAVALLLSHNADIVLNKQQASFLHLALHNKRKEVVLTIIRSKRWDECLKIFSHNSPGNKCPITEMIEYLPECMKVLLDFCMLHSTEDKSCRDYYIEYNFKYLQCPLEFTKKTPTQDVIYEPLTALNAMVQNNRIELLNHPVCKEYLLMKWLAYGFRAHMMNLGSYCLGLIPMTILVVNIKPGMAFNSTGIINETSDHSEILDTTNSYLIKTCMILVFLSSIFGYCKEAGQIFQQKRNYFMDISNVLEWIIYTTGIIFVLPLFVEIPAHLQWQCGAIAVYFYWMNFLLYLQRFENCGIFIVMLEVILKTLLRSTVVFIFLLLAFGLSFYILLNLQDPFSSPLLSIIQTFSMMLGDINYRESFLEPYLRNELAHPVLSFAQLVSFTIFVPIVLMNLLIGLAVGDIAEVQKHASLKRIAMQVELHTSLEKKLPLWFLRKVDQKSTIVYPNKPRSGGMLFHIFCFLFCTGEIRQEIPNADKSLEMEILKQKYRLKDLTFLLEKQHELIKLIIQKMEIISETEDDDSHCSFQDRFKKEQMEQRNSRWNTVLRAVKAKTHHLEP

As to `O=C1c2cccc(O)c2C(=O)c2cccc(O)c21` [Anthrarufin, reference compound], the TRPA1 activation rates in experiment [1] (test sample 200 μM) is reported as 0.587 ± 0.0172%.
The same measure, in the same setting: the figure for `Cc1cc(O)c2c(c1)C(=O)c1cccc(O)c1C2=O` [Chrysophanol, reference compound] is 3.27 ± 0.439%.
Consider `CCC(=N\O)/C(C)=C/c1ccc(F)cc1` [Compound A-967079, reference compound], for which the “Cumulative amounts of food ingested of mice” value was 0.026 ± 0.0093 g in experiment [2] (0.5 hour after the administration), 0.042 ± 0.015 g in experiment [2] (1 hour after the administration), 0.088 ± 0.027 g in experiment [2] (2 hours after the administration) and 0.20 ± 0.066 g in experiment [2] (3 hours after the administration).
Turning to `CC/C=C/CC(O)/C=C/C=C\CCCCCCCC(=O)O` (stereo not drawn) [Compound R1-2], in experiment [3], the “TRPA1 activating action with TRPA1-specific antagonist (in words)” value is given as “inhibited by the TRPA1-specific antagonist” and the “TRPA1 activating action (in words)” value is recorded as “exhibited the TRPA1 activating action”. Moreover, in experiment [3] (test sample 200 μM), the “TRPA1 activation rate, With antagonist” value turned out to be 1.75 ± 0.443% and the “TRPA1 activation rate, Without antagonist” value came out at 32.0 ± 1.40%. Moreover, in experiment [3] (test sample 500 μM), the “TRPA1 activation rate, With antagonist” value was 8.24 ± 1.13% and the “TRPA1 activation rate, Without antagonist” value was determined as 95.9 ± 1.79%.
For `CCC(O)/C=C/C=C\C/C=C\CCCCCCCC(=O)O` (stereo not drawn) [Compound R2-2], in experiment [3], the “TRPA1 activating action with TRPA1-specific antagonist (in words)” value is on record as “inhibited by the TRPA1-specific antagonist” and the “TRPA1 activating action (in words)” value is reported as “exhibited the TRPA1 activating action”. Moreover, in experiment [3] (test sample 200 μM), the “TRPA1 activation rate, With antagonist” value came out at 0.71 ± 0.0743% and the “TRPA1 activation rate, Without antagonist” value was found to be 21.6 ± 5.63%. Besides, in experiment [3] (test sample 500 μM), the “TRPA1 activation rate, With antagonist” value amounted to 1.96 ± 0.548% and the “TRPA1 activation rate, Without antagonist” value was 77.5 ± 0.988%.
Turning to `CC/C=C\C/C=C\C=C\C(O)CCCCCCCC(=O)O` (stereo not drawn) [Compound R3], in experiment [3], the “TRPA1 activating action with TRPA1-specific antagonist (in words)” value is recorded as “inhibited by the TRPA1-specific antagonist” and the “TRPA1 activating action (in words)” value is “exhibited the TRPA1 activating action”. In addition, in experiment [3] (test sample 200 μM), the “TRPA1 activation rate, With antagonist” value is recorded as 0.58 ± 0.0564% and the “TRPA1 activation rate, Without antagonist” value is recorded as 16.3 ± 0.812%. Moreover, in experiment [3] (test sample 500 μM), the “TRPA1 activation rate, With antagonist” value was found to be 0.731 ± 0.237% and the “TRPA1 activation rate, Without antagonist” value amounted to 93.6 ± 1.92%.
Turning to `O=C1c2cccc(O)c2C(=O)c2c(O)cccc21` [Dantron, reference compound], the TRPA1 activation rates in experiment [1] (test sample 200 μM) is given as 4.72 ± 0.762%.
Turning to `Cc1cc(O)c2c(c1)C(=O)c1cc(O)cc(O)c1C2=O` [Emodin, emodin], the “TRPA1 activating action with TRPA1-specific antagonist (in words)” value in experiment [1] (A-967079) was “inhibited by A-967079”. Further, the “Concentration dependence of TRPA1 activity (in words)” value (shortened to “Concentration dependence”) in experiment [1] was “exhibited TRPA1 activity in concentration dependent manner”. Besides, the “TRPA1 activating action (in words)” value in experiment [1] was “exhibited TRPA1 activating actions”. Moreover, the “TRPA1 activation rate, With antagonist” value in experiment [1] (test sample 100 μM, A-967079) came out at 0.881 ± 0.134 %; in experiment [1] (test sample 200 μM, A-967079), 2.96 ± 0.246 %; in experiment [1] (test sample 400 μM, A-967079), 6.25 ± 1.70 %. For the same compound, the results for the “TRPA1 activation rate, Without antagonist” value in experiment [1] (test sample 100 μM), in experiment [1] (test sample 200 μM) and in experiment [1] (test sample 400 μM) were 49.4 ± 1.41%, 64.8 ± 3.73% and 71.29 ± 1.08%, respectively. In experiment [1] (test sample 200 μM), this compound displayed a TRPA1 activation rates of 43.1 ± 1.72%.
In turn, `O=C(O)c1cc(O)c2c(c1)[C@H]([C@H]1c3cc(C(=O)O)cc(O)c3C(=O)c3c(O[C@@H]4O[C@H](CO)[C@@H](O)[C@H](O)[C@H]4O)cccc31)c1cccc(O[C@@H]3O[C@H](CO)[C@@H](O)[C@H](O)[C@H]3O)c1C2=O` [Sennoside A, reference compound] gave a TRPA1 activation rates in experiment [1] (test sample 200 μM) of 3.33 ± 0.705%.
Consider aloe-emodin, for which, in experiment [1], the “Concentration dependence” value is “exhibited TRPA1 activity in concentration dependent manner” and the “TRPA1 activating action (in words)” value is “exhibited TRPA1 activating actions”. This compound also came in with a TRPA1 activation rates in experiment [1] (test sample 200 μM) of 15.3 ± 0.743%.
On to physcion, for which, in experiment [1], the “Concentration dependence” value was “exhibited TRPA1 activity in concentration dependent manner” and the “TRPA1 activating action (in words)” value is recorded as “exhibited TRPA1 activating actions”. Besides, in experiment [1] (test sample 200 μM), the TRPA1 activation rates worked out at 24.3 ± 0.760%.
